Data set [1] deals with T1, human LSD1-CoREST complex (Homo sapiens, UniProt O60341).
T1 construct: made in house
Description: ThermoFAD thermal stability assay. In kind it is binding. To be noted: LSD1-CoREST thermal stability. The procedure:
Compounds 14–22 were tested against the human LSD1-CoREST complex to determine their inhibitory activity. […] ThermoFAD assays were then performed to assess the impact of 14–22 on the thermal stability (ΔT m values, Table ) of the LSD1-CoREST complex. The most significant shifts in Tm values corresponded to the strongest binders. […] Compound 22 was not tested, considering its previous negative results.
Protein expression, thermal stability, and inhibition of human LSD1-CoREST were performed using established protocols. […] LSD1-CoREST (0.4 μM) was preincubated with the inhibitor at 25 °C for 10 min in the presence of 5% DMSO. The reaction was initiated by adding an equal volume of the substrate solution to the enzyme–inhibitor mixture, and resorufin fluorescence (excitation at 530–570 nm and emission at 580–590 nm) was detected with a Clariostar plate reader.

In data set [2] the target is T1, human LSD1-CoREST complex. Description: HRP-coupled LSD1 inhibition assay. In kind it is biochemical. To be noted: 10 min preincubation; for IC50: read-out: IC50 (hLSD1 direct inhibition). The procedure: Protein expression, thermal stability, and inhibition of human LSD1-CoREST were performed using established protocols. […] The reaction was initiated by adding an equal volume of the substrate solution to the enzyme–inhibitor mixture, and resorufin fluorescence (excitation at 530–570 nm and emission at 580–590 nm) was detected with a Clariostar plate reader.

The test system of data set [3] is newly transformed schistosomula (NTS). Description: NTS viability phenotypic screening, 72 h. To be noted: for IC50: Schistosoma mansoni, read-out: IC50 (NTS viability).
Description: (§4) For NTS and adult worms, transparent flat-bottom 96- and 24-well plates were used, respectively (Sarstedt, Switzerland). For juvenile worms, 48-well plates were used with 3–6 worms per plate and RPMI medium with 5% FCS and 1% penicillin/streptomycin. Compounds were initially tested at 20 and 10 μM in triplicate on NTS and repeated once; each well contained 30–40 NTS. Phenotypic reference points such as motility, morphology, and granularity were used to score incubated parasites’ overall viability (scores from 0 to 3). […] Identified hits from the NTS screening were tested on adult worms. […] The experiment was conducted in duplicate and repeated; standard deviations were calculated from two wells. […] For all in vitro assays, negative controls (DMSO at the highest tested concentration) were included.
Data set [4] has as its system adult worms. Description: Adult worm viability phenotypic assay, 72 h. To be noted: Schistosoma mansoni, read-out: IC50 (adult worm viability).
Description: The life cycle is maintained at the Swiss TPH as described previously. Cercariae were obtained from infected snails by exposing them to a strong light source for 3–4 h in pond water.
as §4
Data set [5] in a line: MTT cytotoxicity in MRC-5 cells. To be noted: human, MRC-5 lung diploid fibroblast cells. It counts as cell-based. The procedure:
(§1) The MTT method was used to evaluate cell viability after 72 h of treatment.
(§2) Human commercial lung diploid fibroblasts (MRC-5), and diploid retinal epithelium cells (RPE) were obtained from the American Type Culture Collection (ATCC) and kindly provided by Dr Francesca Degrassi (CNR IBPM) and maintained in minimal essential medium or DMEM-F12 medium supplemented with fetal calf serum, antibiotics, and nonessential amino acids. Cells were grown at 37 °C, in a humidified atmosphere, with 5% CO2. For experiments, cells were seeded in 200 μL of complete in each well of a 96-well microtiter plate. After 24 h, compounds were added at 5, 10, 25, and 50 μM for 72 h in sextuplicate. MTT was added (0.5 mg/mL), incubated for 4 h at 37 °C, and dissolved in 200 μL of isopropyl alcohol. Absorbance was measured at 570 nm (ELISA reader, DASIT), and cell viability was calculated as viability=(ODoftreatedcells/ODofcontrolcells)×100

In data set [6] the test system is S. mansoni juvenile forms. Description: Speed-of-action assay in juvenile forms. In kind it is cell-based, Schistosoma mansoni. To be noted: for IC50: Schistosoma mansoni, read-out: IC50 (speed of action, juvenile forms); for Percentage of effect: juvenile forms. The source says: (§3) To better characterize a selection of our LSD1i in vitro, we assessed the onset of their action, defined as the time required for an observable antischistosomal effect. […] For detailed percentages of activity at each time point, refer to the Supporting Information (Tables S2 and S3 in Supporting Information).

Data set [7] in a line: MTT cytotoxicity in RPE cells. In kind it is cell-based. To be noted: human, retinal pigment epithelial (RPE) cells. The procedure:
as §1, §2

For a further data set, the system named is NTS. In words: Speed-of-action assay in NTS. It counts as cell-based, Schistosoma mansoni. To be noted: for Percentage of effect: NTS; for IC50: Schistosoma mansoni, read-out: IC50 (speed of action, NTS).
From the text: as §3

The test system of data set [8] is adult worms. In words: Pairing and egg laying of adult worms. In kind it is cell-based, Schistosoma mansoni. To be noted: for eggs' number: 20 μM. Here is the method:
Selected compounds 2, 15, 18, and 19 were tested on adult worms to evaluate their effects on pairing and egg laying.

[9] abbreviates: 5 μM, read-out: percentage of viability, 72 h.
Setting [10] is: 10 μM, read-out: percentage of viability, 72 h.
The mark [11] stands for this setting: 25 μM, read-out: percentage of viability, 72 h.
[12] abbreviates: 50 μM, read-out: percentage of viability, 72 h.
Where [13] appears, read: read-out: IC50 (cell viability).

Structures are written as SMILES. Counter-ions that a name gives are not always drawn. Like-named read-outs stand apart in the source and are kept apart here.

What is called IC50 is the concentration needed to halve the response being measured. For `N#Cc1ccc(C(=O)Nc2ccc(C3CC3N)cc2)cc1` (stereo not shown) [Compound 17, N-(4-(2-Aminocyclopropyl)phenyl)-4-cyanobenzamide Hydrochloride], the ΔTm entry in [1] is “+8.5 °C”. Moreover, the IC50 is 0.15 ± 0.02 µM in data set [2] and above 20 µM in data set [3]. The entries for the “Percentage of reduction of NTS viability, 72 h” value (“Percentage of reduction … 72 h” below) in data set [3] (10 μM) and in data set [3] (20 μM) were 25.0 ± 0.0% and 31.2 ± 6.3%, respectively.
As for `Cc1ccc(C(=O)Nc2ccc(C3CC3N)cc2)cc1.Cl` (stereo not shown) [Compound 14, N-(4-(2-Aminocyclopropyl)phenyl)-4-methylbenzamide Hydrochloride], the ΔTm entry in [1] is “+8 °C”. Besides, the IC50 was 0.15 ± 0.02 µM in [2] and above 20 µM in [3]. Moreover, the “Percentage of reduction … 72 h” value turned out to be 22.9 ± 2.1% in data set [3] (10 μM) and 41.7 ± 4.2% in data set [3] (20 μM).
Turning to `C#Cc1cccc(C(=O)Nc2ccc(C3CC3N)cc2)c1.Cl` (stereo not shown) [Compound 16, N-(4-(2-Aminocyclopropyl)phenyl)-3-ethynylbenzamide Hydrochloride], the ΔTm entry in [1] was “+10 °C”. In addition, the IC50 is 0.07 ± 0.02 µM in data set [2], above 10 µM in [3] and above 20 µM in the data set on adult worms [4]. For the same compound, the “Percentage of reduction … 72 h” value in [3] (10 μM) is on record as 31.2 ± 6.3%; in data set [3] (20 μM), 77.8 ± 2.1%.
The term viability denotes a read-out of living cells in per cent, often relative to untreated cells. As for `CC#Cc1ccc(C(=O)Nc2ccc(C3CC3N)cc2)cc1.Cl` (stereo not shown) [Compound 18, N-(4-(2-Aminocyclopropyl)phenyl)-4-(prop-1-yn-1-yl)benzamide Hydrochloride], the ΔTm result in data set [1] is “+8 °C”. Besides, the IC50 in data set [2] is 0.13 ± 0.02 µM; in data set [3] it was 1.76 µM; with adult worms [4] it was above 10 µM; in data set [6] (4 h) it was above 20 µM; in data set [6] (24 h), above 20 µM; in data set [6] (48 h), above 20 µM. The IC50 was 3.8 µM in data set [6] (72 h); above 20 µM with NTS (4 h); 6.9 µM in the data set with NTS (24 h); 4.4 µM with NTS (48 h); 2.4 µM in the data set with NTS (72 h). Also, the viability at 72 h, 5 µM in data set [5] (setting [9]) was determined as 111 ± 10%; in data set [7] (setting [9]), 82 ± 21%. Further, the viability at 72 h, 10 µM is 75 ± 15% in data set [5] (setting [10]) and 86 ± 36% in data set [7] (setting [10]). The results for the viability at 72 h, 25 µM in [5] (setting [11]) and in data set [7] (setting [11]) were 98 ± 14% and 104 ± 20%, respectively. Also, the viability at 72 h, 50 µM was 75 ± 12% in data set [5] (setting [12]) and 95 ± 2% in [7] (setting [12]). Besides, the IC50 at 72 h in data set [5] (setting [13]) and in data set [7] (setting [13]) was above 100 µM throughout. In addition, the “Percentage of reduction … 72 h” value is given as 22.6 ± 1.9% in data set [3] (1 μM), 95.8 ± 4.2% in data set [3] (10 μM) and 100 ± 0.0% in data set [3] (20 μM). Moreover, the Percentage of effect in data set [6] (4 h, 1 μM) is reported as 20%; in data set [6] (4 h, 10 μM), 20%; in [6] (4 h, 20 μM), 43.64%; in data set [6] (24 h, 1 μM), 24.14%; in data set [6] (24 h, 10 μM), 31.03%; in data set [6] (24 h, 20 μM), 46.15%. For the same compound, the Percentage of effect amounted to 34.62% in data set [6] (48 h, 1 μM); 42.31% in data set [6] (48 h, 10 μM); 47.92% in [6] (48 h, 20 μM); 42.81% in [6] (72 h, 1 μM); 44.77% in data set [6] (72 h, 10 μM); 70.83% in data set [6] (72 h, 20 μM). In addition, the Percentage of effect in the data set with NTS (4 h, 10 μM) stood at 26.92%; in the data set on NTS (4 h, 20 μM) it was 30.77%; in the data set with NTS (24 h, 10 μM) it was 51.79%; in the data set with NTS (24 h, 20 μM) it was 75%; in the data set with NTS (48 h, 10 μM), 81.63%; in the data set with NTS (48 h, 20 μM), 87.76%. In the data set on NTS (72 h, 20 μM), this compound had a Percentage of effect of 100%. Also, the “eggs' number” value in the data set with adult worms [8] (4 h) was 0; in the data set on adult worms [8] (8 h), 0; in the data set on adult worms [8] (24 h), 0; in the data set with adult worms [8] (48 h), 0; in the data set on adult worms [8] (72 h), 2. Also, the “effect on worm pairing” value in the data set with adult worms [8] (adult worms) is given as “no impact on worm pairing”.
Regarding `Cl.NC1CC1c1ccc(NC(=O)c2ccc(C#Cc3ccccc3)cc2)cc1` (stereo not shown) [Compound 20, N-(4-(2-Aminocyclopropyl)phenyl)-4-(phenylethynyl)benzamide Hydrochloride], in [1], the ΔTm result was “+8 °C”. The “IC50 (hLSD1 direct inhibition)” value in data set [2] is recorded as “single-digit μM inhibition”. Besides, the IC50 in data set [2] was 4.02 ± 0.41 µM; in [3], above 10 µM; with adult worms [4], above 20 µM. The “Percentage of reduction … 72 h” value in [3] (10 μM) is on record as 29.2 ± 0.0%; in data set [3] (20 μM), 77.8 ± 2.1%.

The values are drawn from PMC12340956, “Tranylcypromine-Based LSD1 Inhibitors as Useful Agents to Reduce Viability of” (ACS Infectious Diseases, 2025).
